Reference: patent US20070264702A1 (priority 2003, published 2007)
Entries after “also recorded” stand apart in the source; their conditions may differ.

How the values were obtained:
[1] = system: nahR/Psal::xylS2 cascade circuit with Pm::trp′::′lacZ in SL7207 4S2; format: cell-based, Salmonella typhimurium
[2] = system: SL7207 4S2 pWSK-/pCAS-trp′::′lacZ infecting HeLa cells; format: cell-based
[3] = system: XylS2; conditions: XylS2 mutant regulator; cited from earlier work
[4] = system: nahR/Psal with xylS2/Pm downstream; conditions: cited from earlier work
[5] = system: SL7207 4S2; assay: growth inhibition of the bacterial cultures at high inducer concentration; conditions: high concentrations (5 mM)
[6] = molecular target: MarR (Escherichia coli, UniProt P27245); conditions: cited from earlier work
[7] = in vivo; cited from earlier work

MarR, sequence (P27245 whole entry): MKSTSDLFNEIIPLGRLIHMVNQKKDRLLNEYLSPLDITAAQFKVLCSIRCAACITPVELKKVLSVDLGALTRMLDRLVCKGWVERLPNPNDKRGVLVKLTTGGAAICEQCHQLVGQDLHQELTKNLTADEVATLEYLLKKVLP

In the case of `CC(=O)Oc1ccccc1C(=O)O` [acetylsalicylic acid], the “induction of the system, salicylate compared with acetylsalicylic acid” value [1] is listed as “induced the system similarly”, the “β-galactosidase expression in bacteria infecting HeLa cells” value [2] is listed as “induce similar levels of β-galactosidase; also recorded: activate the signal cascade to similar levels” and the induction of expression [3] is listed as 10 fold. The “induction reached with regulation cascade system” value [4] was 1,000 fold and the growth inhibition [5] was “growth inhibition was evident”.

For `O=C(O)c1ccccc1O` [salicylate], the Kd [6] is given as 500 µM and the half-life [7] is given as 2 to 4 h.
